According to patent US9113629B2, “4-amino-6-(4-substituted-phenyl)-picolinates and 6-amino-2-(4-substituted-phenyl)-pyrimidine-4-carboxylates and their use as herbicides” (DOW AGROSCIENCES LLC, priority 2013, dated 2015):
Read-outs that look alike come from different tables or passages of the source.

How the values were obtained:
[1] = system: Key Broadleaf Weed and Crop Species; experiment: Post-emergent Test II herbicidal activity (Table 5); assay type: in vivo; conditions: post-emergence, 336 h, 14 days after application; for pest or weed control at 70 g/ha: application rate 70 g ai/ha
How it was run: (§1)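 Foliar application at 187 L/ha to greenhouse-grown seedlings (first or second true leaf); subirrigation thereafter. Visual 0–100% injury at 14 d relative to untreated plants.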

[2] = system: Key Grass and Sedge Weeds as well as Grass Crops; experiment: Post-emergent Test II herbicidal activity (Table 6); assay type: in vivo; conditions: post-emergence, 336 h; for pest or weed control at 70 g/ha: 70 g ai/ha
How it was run: as §1

[3] = ABUTH: velvetleaf (Abutilon theophrasti), read-out: Visual Growth Reduction (%) 14 Days After Application, ABUTH
[4] = ABUTH: velvetleaf (Abutilon theophrasti), application rate 140 g ai/ha, read-out: Visual Growth Reduction (%) 14 Days After Application, ABUTH
[5] = AMARE: redroot pigweed (Amaranthus retroflexus), read-out: Visual Growth Reduction (%) 14 Days After Application, AMARE
[6] = AMARE: redroot pigweed (Amaranthus retroflexus), application rate 140 g ai/ha, read-out: Visual Growth Reduction (%) 14 Days After Application, AMARE
[7] = BRSNN: oilseed-rape, canola (Brassica napus), read-out: Visual Growth Reduction (%) 14 Days After Application, BRSNN
[8] = BRSNN: oilseed-rape, canola (Brassica napus), application rate 140 g ai/ha, read-out: Visual Growth Reduction (%) 14 Days After Application, BRSNN
[9] = CHEAL: lambsquarters (Chenopodium album), read-out: Visual Growth Reduction (%) 14 Days After Application, CHEAL
[10] = CHEAL: lambsquarters (Chenopodium album), application rate 140 g ai/ha, read-out: Visual Growth Reduction (%) 14 Days After Application, CHEAL
[11] = EPHHL: wild poinsettia (Euphorbia heterophylla), read-out: Visual Growth Reduction (%) 14 Days After Application, EPHHL
[12] = EPHHL: wild poinsettia (Euphorbia heterophylla), application rate 140 g ai/ha, read-out: Visual Growth Reduction (%) 14 Days After Application, EPHHL
[13] = HELAN: sunflower (Helianthus annuus), read-out: Visual Growth Reduction (%) 14 Days After Application, HELAN
[14] = HELAN: sunflower (Helianthus annuus), application rate 140 g ai/ha, read-out: Visual Growth Reduction (%) 14 Days After Application, HELAN
[15] = VIOTR: wild pansy (Viola tricolor), read-out: Visual Growth Reduction (%) 14 Days After Application, VIOTR
[16] = VIOTR: wild pansy (Viola tricolor), application rate 140 g ai/ha, read-out: Visual Growth Reduction (%) 14 Days After Application, VIOTR
[17] = CYPES: yellow nutsedge (Cyperus esculentus), read-out: Visual Growth Reduction (%) 14 Days After Application, CYPES
[18] = CYPES: yellow nutsedge (Cyperus esculentus), 140 g ai/ha, read-out: Visual Growth Reduction (%) 14 Days After Application, CYPES
[19] = DIGSA: crabgrass (Digitaria sanguinalis), read-out: Visual Growth Reduction (%) 14 Days After Application, DIGSA
[20] = DIGSA: crabgrass (Digitaria sanguinalis), 140 g ai/ha, read-out: Visual Growth Reduction (%) 14 Days After Application, DIGSA
[21] = ECHCG: barnyardgrass (Echinochloa crus-galli), read-out: Visual Growth Reduction (%) 14 Days After Application, ECHCG
[22] = ECHCG: barnyardgrass (Echinochloa crus-galli), 140 g ai/ha, read-out: Visual Growth Reduction (%) 14 Days After Application, ECHCG
[23] = ORYSA: rice (Oryza sativa), crop, read-out: Visual Growth Reduction (%) 14 Days After Application, ORYSA
[24] = ORYSA: rice (Oryza sativa), crop, 140 g ai/ha, read-out: Visual Growth Reduction (%) 14 Days After Application, ORYSA
[25] = SETFA: giant foxtail (Setaria faberi), read-out: Visual Growth Reduction (%) 14 Days After Application, SETFA
[26] = SETFA: giant foxtail (Setaria faberi), 140 g ai/ha, read-out: Visual Growth Reduction (%) 14 Days After Application, SETFA
[27] = SORVU: grain sorghum (Sorghum vulgare), read-out: Visual Growth Reduction (%) 14 Days After Application, SORVU
[28] = SORVU: grain sorghum (Sorghum vulgare), 140 g ai/ha, read-out: Visual Growth Reduction (%) 14 Days After Application, SORVU
[29] = TRZSS (wheat, Triticum aestivum), crop, read-out: Visual Growth Reduction (%) 14 Days After Application, TRZSS
[30] = TRZSS (wheat, Triticum aestivum), crop, 140 g ai/ha, read-out: Visual Growth Reduction (%) 14 Days After Application, TRZSS
[31] = ZEAMX: maize, corn (Zea mays), crop, read-out: Visual Growth Reduction (%) 14 Days After Application, ZEAMX
[32] = ZEAMX: maize, corn (Zea mays), crop, 140 g ai/ha, read-out: Visual Growth Reduction (%) 14 Days After Application, ZEAMX

Compound | melting point [°C] | pest or weed control at 70 g/ha [1, 3] [%] | pest or weed control at 140 g/ha [1, 4] [%] | pest or weed control at 70 g/ha [1, 5] [%] | pest or weed control at 140 g/ha [1, 6] [%] | pest or weed control at 70 g/ha [1, 7] [%] | pest or weed control at 140 g/ha [1, 8] [%] | pest or weed control at 70 g/ha [1, 9] [%] | pest or weed control at 140 g/ha [1, 10] [%] | pest or weed control at 70 g/ha [1, 11] [%] | pest or weed control at 140 g/ha [1, 12] [%] | pest or weed control at 70 g/ha [1, 13] [%] | pest or weed control at 140 g/ha [1, 14] [%] | pest or weed control at 70 g/ha [1, 15] [%] | pest or weed control at 140 g/ha [1, 16] [%] | pest or weed control at 70 g/ha [2, 17] [%] | pest or weed control at 140 g/ha [2, 18] [%] | pest or weed control at 70 g/ha [2, 19] [%] | pest or weed control at 140 g/ha [2, 20] [%] | pest or weed control at 70 g/ha [2, 21] [%] | other results
C#Cc1ccc(-c2nc(C(=O)OC)c(Cl)c(N)c2F)c(F)c1F [Compound 22] | 190 to 192 | 0 to 29 | 0 to 29 | 0 to 29 | 0 to 29 | 0 to 29 | 60 to 74 | 45 to 59 | 75 to 84 | 0 to 29 | 95 to 100 | 45 to 59 | 75 to 84 | 0 to 29 | 0 to 29 | 0 to 29 | 0 to 29 | 0 to 29 | 0 to 29 | 0 to 29 | pest or weed control at 140 g/ha [2, 22]: 45 to 59%; pest or weed control at 70 g/ha [2, 23]: 0 to 29%; pest or weed control at 140 g/ha [2, 24]: 0 to 29%; pest or weed control at 70 g/ha [2, 25]: 0 to 29%; pest or weed control at 140 g/ha [2, 26]: 0 to 29%; pest or weed control at 70 g/ha [2, 27]: 0 to 29%; pest or weed control at 140 g/ha [2, 28]: 0 to 29%; pest or weed control at 70 g/ha [2, 29]: 0 to 29%; pest or weed control at 140 g/ha [2, 30]: 0 to 29%; pest or weed control at 70 g/ha [2, 31]: 0 to 29%; pest or weed control at 140 g/ha [2, 32]: 45 to 59%
COC(=O)c1nc(-c2ccc(I)c(F)c2F)nc(N)c1OC [Compound 24, methyl 6-amino-2-(2,3-difluoro-4-iodophenyl)-5-methoxypyrimidine-4-carboxylate] | 169 to 170 | 95 to 100 | 95 to 100 | 75 to 84 | 85 to 94 | 95 to 100 | 95 to 100 | 95 to 100 | 95 to 100 | 95 to 100 | 95 to 100 | 85 to 94 | 95 to 100 | 45 to 59 | 95 to 100 | 95 to 100 | 95 to 100 | 45 to 59 | 60 to 74 | 95 to 100 | pest or weed control at 140 g/ha [2, 22]: 95 to 100%; pest or weed control at 70 g/ha [2, 23]: 0 to 29%; pest or weed control at 140 g/ha [2, 24]: 0 to 29%; pest or weed control at 70 g/ha [2, 25]: 60 to 74%; pest or weed control at 140 g/ha [2, 26]: 85 to 94%; pest or weed control at 70 g/ha [2, 27]: 85 to 94%; pest or weed control at 140 g/ha [2, 28]: 85 to 94%; pest or weed control at 70 g/ha [2, 29]: 0 to 29%; pest or weed control at 140 g/ha [2, 30]: 30 to 44%; pest or weed control at 70 g/ha [2, 31]: 95 to 100%; pest or weed control at 140 g/ha [2, 32]: 95 to 100%
C#Cc1ccc(-c2nc(N)c(OC)c(C(=O)O)n2)cc1 [Compound 28] | 170.7 to 171.3 |  |  |  |  |  |  |  |  |  |  |  |  |  |  |  |  |  |  |  | pest or weed control at 140 g/ha ([1]; ABUTH: velvetleaf (Abutilon theophrasti), 140 g ai/ha, post-emergent, read-out: Visual Growth Reduction (%) 14 Days After Application ABUTH): 0 to 29%; pest or weed control at 140 g/ha ([1]; AMARE: redroot pigweed (Amaranthus retroflexus), 140 g ai/ha, post-emergent, read-out: Visual Growth Reduction (%) 14 Days After Application AMARE): 95 to 100%; pest or weed control at 140 g/ha ([1]; BRSNN: oilseed-rape, canola (Brassica napus), 140 g ai/ha, post-emergent, read-out: Visual Growth Reduction (%) 14 Days After Application BRSNN): 0 to 29%; pest or weed control at 140 g/ha ([1]; CHEAL: lambsquarters (Chenopodium album), 140 g ai/ha, post-emergent, read-out: Visual Growth Reduction (%) 14 Days After Application CHEAL): 95 to 100%; pest or weed control at 140 g/ha ([1]; EPHHL: wild poinsettia (Euphorbia heterophylla), 140 g ai/ha, post-emergent, read-out: Visual Growth Reduction (%) 14 Days After Application EPHHL): 95 to 100%; pest or weed control at 140 g/ha ([1]; HELAN: sunflower (Helianthus annuus), 140 g ai/ha, post-emergent, read-out: Visual Growth Reduction (%) 14 Days After Application HELAN): 85 to 94%; pest or weed control at 140 g/ha ([1]; VIOTR: wild pansy (Viola tricolor), 140 g ai/ha, post-emergent, read-out: Visual Growth Reduction (%) 14 Days After Application VIOTR): 0 to 29%; pest or weed control at 140 g/ha ([2]; Triticum aestivum, TRZSS (wheat), application rate 140 g ai/ha, read-out: Visual Growth Reduction (%) 14 Days After Application, TRZSS): 0 to 29%; pest or weed control at 140 g/ha ([2]; CYPES: yellow nutsedge (Cyperus esculentus), application rate 140 g ai/ha, read-out: Visual Growth Reduction (%) 14 Days After Application, CYPES): 0 to 29%; pest or weed control at 140 g/ha ([2]; DIGSA: crabgrass (Digitaria sanguinalis), application rate 140 g ai/ha, read-out: Visual Growth Reduction (%) 14 Days After Application, DIGSA): 60 to 74%; pest or weed control at 140 g/ha ([2]; ECHCG: barnyardgrass (Echinochloa crus-galli), application rate 140 g ai/ha, read-out: Visual Growth Reduction (%) 14 Days After Application, ECHCG): 0 to 29%; pest or weed control at 140 g/ha ([2]; ORYSA: rice (Oryza sativa), application rate 140 g ai/ha, read-out: Visual Growth Reduction (%) 14 Days After Application, ORYSA): 0 to 29%; pest or weed control at 140 g/ha ([2]; SETFA: giant foxtail (Setaria faberi), application rate 140 g ai/ha, read-out: Visual Growth Reduction (%) 14 Days After Application, SETFA): 45 to 59%; pest or weed control at 140 g/ha ([2]; SORVU: grain sorghum (Sorghum vulgare), application rate 140 g ai/ha, read-out: Visual Growth Reduction (%) 14 Days After Application, SORVU): 0 to 29%; pest or weed control at 140 g/ha ([2]; ZEAMX: maize, corn (Zea mays), application rate 140 g ai/ha, read-out: Visual Growth Reduction (%) 14 Days After Application, ZEAMX): 60 to 74%
